Measured values: PubChem BioAssay (NCI)
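Growth conditions: 96-well plates. Treatment: test compound, 48 hours, 5 concentrations. Analysis: linear interpolation between bracketing concentrations; unreached endpoints set to highest concentration. At the GI50, growth is halved. TGI is the concentration that stops growth completely.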

Columns and labels:
Test in all cases: NCI-60 cell line screen, 48 h
[1] = tested on: KM12 colon
[2] = tested on: HL-60(TB) leukemia
[3] = tested on: HT29 colon
[4] = tested on: MCF7 breast
[5] = tested on: MDA-MB-231 breast
[6] = tested on: UO-31 renal
[7] = tested on: OVCAR-8 ovarian
[8] = tested on: OVCAR-3 ovarian
[9] = tested on: SNB-75 CNS
[10] = tested on: 786-0 renal
[11] = tested on: OVCAR-5 ovarian
[12] = tested on: IGROV1 ovarian
[13] = tested on: A549 NSCLC
[14] = tested on: PC-3 prostate
[15] = tested on: HOP-62 NSCLC
[16] = tested on: HCT-15 colon
[17] = tested on: SK-MEL-5 melanoma
[18] = tested on: ACHN renal
[19] = tested on: OVCAR-4 ovarian
[20] = tested on: CAKI-1 renal
[21] = tested on: NCI-H460 lung
[22] = tested on: UACC-257 melanoma
[23] = tested on: K-562 leukemia
[24] = tested on: TK-10 renal
[25] = tested on: SN12C renal
[26] = tested on: CCRF-CEM leukemia
[27] = tested on: RPMI-8226 leukemia
[28] = tested on: HS 578T breast
[29] = tested on: NCI-H226 lung
[30] = tested on: SK-MEL-2 melanoma
[31] = tested on: EKVX NSCLC
[32] = tested on: COLO 205 colon
[33] = tested on: LOX IMVI melanoma
[34] = tested on: NCI/ADR-RES ovarian
[35] = tested on: MALME-3M melanoma
[36] = tested on: MOLT-4 leukemia
[37] = tested on: NCI-H23 lung
[38] = tested on: BT-549 breast
[39] = tested on: NCI-H522 lung
[40] = tested on: DU-145 prostate
[41] = tested on: MDA-MB-435
[42] = tested on: SK-MEL-28 melanoma
[43] = tested on: RXF 393 renal
[44] = tested on: T-47D breast
[45] = tested on: HOP-92 NSCLC
[46] = tested on: M14 melanoma
[47] = tested on: HCC-2998 colon
[48] = tested on: UACC-62 melanoma
[49] = tested on: A498 renal
[50] = tested on: HCT-116 colon
[51] = tested on: SNB-19 CNS
[52] = tested on: SW-620 colon
[53] = tested on: U251 CNS
[54] = tested on: SF-295 CNS
[55] = tested on: SK-OV-3 ovarian
[56] = tested on: SR leukemia
[57] = tested on: SF-539 CNS
[58] = tested on: SF-268 CNS

## CN1CCC(n2cc(Nc3ncc4c(=O)n(-c5c(Cl)cccc5Cl)cc(Br)c4n3)cn2)CC1
[1]
  GI50: 551 nM
  TGI: 16.3 µM
[2]
  GI50: 160 nM
  TGI: 853 nM
[3]
  GI50: 142 nM
  TGI: 2620 nM
[4]
  GI50: 181 nM
  TGI: 7.25 µM
[5]
  GI50: 821 nM
  TGI: 13.4 µM
[6]
  GI50: 70.8 nM
  TGI: 11.5 µM
[7]
  GI50: 268 nM
  TGI: 5.02 µM
[8]
  GI50: 223 nM
  TGI: 3.47 µM
[9]
  GI50: 611 nM
  TGI: 11.3 µM
[10]
  GI50: 241 nM
  TGI: 8.32 µM
[11]
  GI50: 1360 nM
  TGI: 12.3 µM
[12]
  GI50: 110 nM
  TGI: 7.32 µM
[13]
  GI50: 2320 nM
  TGI: 11.5 µM
[14]
  GI50: 1720 nM
  TGI: 16.4 µM
[15]
  GI50: 846 nM
  TGI: 13.3 µM
[16]
  GI50: 368 nM
  TGI: 11.3 µM
[17]
  GI50: 419 nM
  TGI: 17.5 µM
[18]
  GI50: 40.2 nM
  TGI: 11.9 µM
[19]
  GI50: 627 nM
  TGI: 11.3 µM
[20]
  GI50: 98.4 nM
  TGI: 11.5 µM
[21]
  GI50: 1350 nM
  TGI: 8.91 µM
[22]
  GI50: 1270 nM
  TGI: 9.28 µM
[23]
  GI50: 178 nM
  TGI: 12.5 µM
[24]
  GI50: 178 nM
  TGI: 17.4 µM
[25]
  GI50: 235 nM
  TGI: 11.4 µM
[26]
  GI50: 75 nM
  TGI: 6.36 µM
[27]
  GI50: 1150 nM
  TGI: 10.3 µM
[28]
  GI50: 538 nM
  TGI: 16.1 µM
[29]
  GI50: 1290 nM
  TGI: 11.4 µM
[30]
  GI50: 192 nM
  TGI: 1730 nM
[31]
  GI50: 2770 nM
  TGI: 18 µM
[32]
  GI50: 1140 nM
  TGI: 8.53 µM
[33]
  GI50: 480 nM
  TGI: 2920 nM
[34]
  GI50: 288 nM
  TGI: 15.3 µM
[35]
  GI50: 796 nM
  TGI: 18.1 µM
[36]
  GI50: 64.6 nM
  TGI: 4.26 µM
[37]
  GI50: 65.1 nM
  TGI: 594 nM
[38]
  GI50: 399 nM
  TGI: 4.64 µM
[39]
  GI50: 424 nM
  TGI: 2650 nM
[40]
  GI50: 1300 nM
  TGI: 14.8 µM
[41]
  GI50: 148 nM
  TGI: 10.3 µM
[42]
  GI50: 4.1 µM
  TGI: 18.9 µM
[43]
  GI50: 80.8 nM
  TGI: 585 nM
[44]
  GI50: 887 nM
  TGI: 15.5 µM
[45]
  GI50: 102 nM
  TGI: 3.73 µM
[46]
  GI50: 65 nM
  TGI: 13.4 µM
[47]
  GI50: 740 nM
  TGI: 12.5 µM
[48]
  GI50: 901 nM
  TGI: 22 µM
[49]
  GI50: 62.8 nM
  TGI: 3.19 µM
[50]
  GI50: 585 nM
  TGI: 10.4 µM
[51]
  GI50: 693 nM
  TGI: 13.6 µM
[52]
  GI50: 1200 nM
  TGI: 11.8 µM
[53]
  GI50: 787 nM
  TGI: 11.2 µM
[54]
  GI50: 939 nM
  TGI: 15.5 µM
[55]
  GI50: 275 nM
  TGI: 13.9 µM
[56]
  GI50: 42.5 nM
  TGI: 1610 nM
[57]
  GI50: 33.7 nM
  TGI: 166 nM
[58]
  GI50: 2160 nM
  TGI: 16.5 µM
